pEC50: −log10 of the molar value.
Target: human GPR40 receptor (Homo sapiens, UniProt O14842)
Experiment: IP1 accumulation measurements using the IPOne assay system in 1321N1 cells stably expressing human GPR40 receptor
Format: cell-based
Settings: stimulation 1 h at 37° C.
Experimental: IP1 accumulation measurements using the IPOne assay system—1321N1 cells stably expressing human GPR40 receptor (Euroscreen, Belgium) are seeded 24 h before the assay in white 384-well plates in culture medium containing 10% FCS, 1% Na-Pyruvate and 400 μg/mL G418. IP1 is assayed according to the manufacturer's description (Cisbio Bioassays, France). In brief, the assay is started by substitution of the culture medium by stimulation buffer (Hepes 10 mM, CaCl2 1 mM, MgCl2 0.5 mM, KCl 4.2 mM, NaCl 146 mM, glucose 5.5 mM and LiCl 50 mM, pH 7.4). Cells are stimulated for 1 h at 37° C., 5% CO2 by addition of the compounds that are diluted in stimulation buffer containing LiCl. Assays are stopped by adding HTRF-conjugates (IP1-d2 and Anti-IP1 cryptate Tb) and lysis buffer, provided by the manufacturer. After an incubation time of 1 h at room temperature plates are measured using an EnVision™, Perkin Elmer. The obtained fluorescence ratios at 665/615 […] are then used to calculate the pEC50 values using Assay Explorer 3.3 Software (Accelrys, Inc.) by interpolation using an IP1 reference curve and subsequent sigmoidal curve fitting allowing for a variable hill slope.

Sequence of human GPR40 receptor (O14842 whole entry): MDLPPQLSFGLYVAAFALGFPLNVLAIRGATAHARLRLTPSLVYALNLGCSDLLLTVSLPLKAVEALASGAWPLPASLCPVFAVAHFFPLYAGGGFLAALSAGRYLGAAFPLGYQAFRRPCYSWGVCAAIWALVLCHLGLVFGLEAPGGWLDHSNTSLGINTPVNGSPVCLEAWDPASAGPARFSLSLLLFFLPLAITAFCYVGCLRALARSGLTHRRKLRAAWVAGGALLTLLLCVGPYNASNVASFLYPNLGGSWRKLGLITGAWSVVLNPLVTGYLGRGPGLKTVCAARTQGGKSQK

| Compound | pEC50 |
| --- | --- |
| O=C(O)C[C@@H]1COc2cc(O[C@@H]3CCc4c3ccc(C(F)(F)F)c4CN3CCc4ccccc4C3)ccc21 [Example 29, {(S)-6-[(R)-4-(3,4-Dihydro-isoquinolin-2-ylmethyl)-5-trifluoromethyl-indan-1-yloxy]-2,3-dihydro-benzofuran-3-yl}-acetic acid] | 8.52 |
| O=C(O)C[C@@H]1COc2cc(O[C@@H]3CCc4c3ccc(C(F)(F)F)c4CN3CCc4ncsc4C3)ccc21 [Example 30, {(S)-6-[(R)-4-(6,7-Dihydro-thiazolo[5,4-c]pyridin-5-ylmethyl)-5-trifluoromethyl-indan-1-yloxy]-2,3-dihydro-benzofuran-3-yl}-acetic acid] | 8.52 |
| Cn1cc2c(n1)CCN(Cc1c(C(F)(F)F)ccc3c1CC[C@H]3Oc1ccc3c(c1)OC[C@H]3CC(=O)O)C2 [Example 31, {(S)-6-[(R)-4-(2-Methyl-2,4,6,7-tetrahydro-pyrazolo[4,3-c]pyridin-5-ylmethyl)-5-trifluoromethyl-indan-1-yloxy]-2,3-dihydro-benzofuran-3-yl}-acetic acid] | 8.70 |
| O=C(O)C[C@@H]1COc2cc(O[C@@H]3CCc4c3ccc(C(F)(F)F)c4CN3CCc4ccsc4C3)ccc21 [Example 32, {(S)-6-[(R)-4-(4,7-Dihydro-thieno[2,3-c]pyridin-6-ylmethyl)-5-trifluoromethyl-indan-1-yloxy]-2,3-dihydro-benzofuran-3-yl}-acetic acid] | 8.70 |
| O=C(O)C[C@@H]1COc2cc(O[C@@H]3CCc4c3ccc(C(F)(F)F)c4CN3CCn4nccc4C3)ccc21 [Example 33, {(S)-6-[(R)-4-(6,7-Dihydro-pyrazolo[1,5-a]pyrazin-5-ylmethyl)-5-trifluoromethyl-indan-1-yloxy]-2,3-dihydro-benzofuran-3-yl}-acetic acid] | 8.70 |
| O=C(O)C[C@@H]1COc2cc(O[C@@H]3CCc4c3ccc(C(F)(F)F)c4CN3CCc4nocc4C3)ccc21 [Example 34, {(S)-6-[(R)-4-(6,7-Dihydro-isoxazolo[4,3-c]pyridin-5-ylmethyl)-5-trifluoromethyl-indan-1-yloxy]-2,3-dihydro-benzofuran-3-yl}-acetic acid] | 8.52 |
| Cc1nc2c(o1)CCN(Cc1c(C(F)(F)F)ccc3c1CC[C@H]3Oc1ccc3c(c1)OC[C@H]3CC(=O)O)C2 [Example 35, {(S)-6-[(R)-4-(2-Methyl-6,7-dihydro-oxazolo[4,5-c]pyridin-5-ylmethyl)-5-trifluoromethyl-indan-1-yloxy]-2,3-dihydro-benzofuran-3-yl}-acetic acid] | 8.52 |

From patent publication US8927531B2, “Indanyloxydihydrobenzofuranylacetic acids” (Boehringer Ingelheim International GmbH, priority 2013, dated 2015)
